Patent publication US20040176349A1, “Antibacterial composition” (priority 2001, published 2004)
Like-named read-outs stand apart in the source and are kept apart here.

Key:
[1] = test system: E. faecalis 5659 (vanA); experiment: Checkerboard microdilution MIC with PFOB, Table 2; assay type: cell-based; conditions: for MIC of partner antibiotic in the presence of PFOB at 0.5 mg/L: PFOB 0.5 mg/L; for MIC of partner antibiotic in the presence of PFOB at 1 mg/L: PFOB 1 mg/L; for MIC of partner antibiotic in the presence of PFOB at 2 mg/L: PFOB 2 mg/L; for MIC of partner antibiotic in the presence of PFOB at 4 mg/L: PFOB 4 mg/L; for MIC of partner antibiotic in the presence of PFOB at 8 mg/L: PFOB 8 mg/L; for MIC of partner antibiotic in the presence of PFOB at 16 mg/L: PFOB 16 mg/L; for MIC of partner antibiotic in the presence of PFOB at 32 mg/L: PFOB 32 mg/L; for MIC: Enterococcus faecalis, read-out: MIC (alone) of Partner
Description: (§1) The aim of the study was to detect any synergy between PFOB and the other antibiotics. For the purposes of the study, synergy was defined in accordance with the FIC (fractional inhibitory concentration) index, as disclosed by Lorian (1991, In “Antibiotics in Laboratory Medicine” 3rd edition, Eds. Williams & Wilkins; esp. p 434-443). In essence, if the combination of test compounds gives at least a 4-fold reduction in the FIC value for each compound, then a synergy may be considered to exist (i.e. FIC of the combination <0.5=synergy; FIC 0.5-2.0=“indifference”; and FIC >2=antagonism).
(§2) In Table 2, results in the checkerboard indicating synergy are hatched, and specific optimum synergistic combinations are boxed.

[2] = test system: E. faecalis ATCC 29212; experiment: Checkerboard microdilution MIC with PFOB, Table 2; assay type: cell-based; conditions: for MIC of partner antibiotic in the presence of PFOB at 0.5 mg/L: PFOB 0.5 mg/L; for MIC of partner antibiotic in the presence of PFOB at 1 mg/L: PFOB 1 mg/L; for MIC of partner antibiotic in the presence of PFOB at 2 mg/L: PFOB 2 mg/L; for MIC of partner antibiotic in the presence of PFOB at 4 mg/L: PFOB 4 mg/L; for MIC of partner antibiotic in the presence of PFOB at 8 mg/L: PFOB 8 mg/L; for MIC of partner antibiotic in the presence of PFOB at 16 mg/L: PFOB 16 mg/L; for MIC of partner antibiotic in the presence of PFOB at 32 mg/L: PFOB 32 mg/L; for MIC: Enterococcus faecalis
Description: as §1, §2

[3] = test system: E.faecalis 78097 (van B); experiment: Checkerboard microdilution MIC with PFOB, Table 2; assay type: cell-based; conditions: for MIC of partner antibiotic in the presence of PFOB at 0.5 mg/L: PFOB 0.5 mg/L; for MIC of partner antibiotic in the presence of PFOB at 1 mg/L: PFOB 1 mg/L; for MIC of partner antibiotic in the presence of PFOB at 2 mg/L: PFOB 2 mg/L; for MIC of partner antibiotic in the presence of PFOB at 4 mg/L: PFOB 4 mg/L; for MIC of partner antibiotic in the presence of PFOB at 8 mg/L: PFOB 8 mg/L; for MIC of partner antibiotic in the presence of PFOB at 16 mg/L: PFOB 16 mg/L; for MIC of partner antibiotic in the presence of PFOB at 32 mg/L: PFOB 32 mg/L; for MIC: Enterococcus faecalis, read-out: MIC (alone) of Partner
Description: as §1, §2

[4] = test system: E. faecalis ATCC 10541; experiment: Checkerboard microdilution MIC with PFOB, Table 2; assay type: cell-based; conditions: for MIC of partner antibiotic in the presence of PFOB at 0.5 mg/L: PFOB 0.5 mg/L; for MIC of partner antibiotic in the presence of PFOB at 1 mg/L: PFOB 1 mg/L; for MIC of partner antibiotic in the presence of PFOB at 2 mg/L: PFOB 2 mg/L; for MIC of partner antibiotic in the presence of PFOB at 16 mg/L: PFOB 16 mg/L; for MIC of partner antibiotic in the presence of PFOB at 32 mg/L: PFOB 32 mg/L; for MIC: Enterococcus faecalis
Description: The aim of the study was to detect any synergy between PFOB and the other antibiotics. For the purposes of the study, synergy was defined in accordance with the FIC (fractional inhibitory concentration) index, as disclosed by Lorian (1991, In “Antibiotics in Laboratory Medicine” 3rd edition, Eds. Williams & Wilkins; esp. p 434-443).

[5] = test system: enterococci; experiment: Checkerboard study, synergy summary of Example 2; assay type: cell-based, Enterococcus; conditions: in words
Description: as §1

Structure (SMILES) | MIC of partner antibiotic in the presence of PFOB at 0.5 mg/L ([1]; E. faecalis 5659 (vanA)) [µg/mL] | MIC of partner antibiotic in the presence of PFOB at 1 mg/L ([1]; E. faecalis 5659 (vanA)) [µg/mL] | MIC of partner antibiotic in the presence of PFOB at 2 mg/L ([1]; E. faecalis 5659 (vanA)) [µg/mL] | MIC of partner antibiotic in the presence of PFOB at 4 mg/L ([1]; E. faecalis 5659 (vanA)) [µg/mL] | MIC of partner antibiotic in the presence of PFOB at 8 mg/L ([1]; E. faecalis 5659 (vanA)) [µg/mL] | MIC of partner antibiotic in the presence of PFOB at 16 mg/L ([1]; E. faecalis 5659 (vanA)) [µg/mL] | MIC of partner antibiotic in the presence of PFOB at 32 mg/L ([1]; E. faecalis 5659 (vanA)) [µg/mL] | MIC of partner antibiotic in the presence of PFOB at 0.5 mg/L ([2]; E. faecalis ATCC 29212) [µg/mL] | MIC of partner antibiotic in the presence of PFOB at 1 mg/L ([2]; E. faecalis ATCC 29212) [µg/mL] | MIC of partner antibiotic in the presence of PFOB at 2 mg/L ([2]; E. faecalis ATCC 29212) [µg/mL] | MIC of partner antibiotic in the presence of PFOB at 4 mg/L ([2]; E. faecalis ATCC 29212) [µg/mL] | MIC of partner antibiotic in the presence of PFOB at 8 mg/L ([2]; E. faecalis ATCC 29212) [µg/mL] | MIC of partner antibiotic in the presence of PFOB at 16 mg/L ([2]; E. faecalis ATCC 29212) [µg/mL] | MIC of partner antibiotic in the presence of PFOB at 32 mg/L ([2]; E. faecalis ATCC 29212) [µg/mL] | MIC of partner antibiotic in the presence of PFOB at 0.5 mg/L ([3]; E.faecalis 78097 (van B)) [µg/mL] | MIC of partner antibiotic in the presence of PFOB at 1 mg/L ([3]; E.faecalis 78097 (van B)) [µg/mL] | MIC of partner antibiotic in the presence of PFOB at 2 mg/L ([3]; E.faecalis 78097 (van B)) [µg/mL] | MIC of partner antibiotic in the presence of PFOB at 4 mg/L ([3]; E.faecalis 78097 (van B)) [µg/mL] | MIC of partner antibiotic in the presence of PFOB at 8 mg/L ([3]; E.faecalis 78097 (van B)) [µg/mL] | MIC of partner antibiotic in the presence of PFOB at 16 mg/L ([3]; E.faecalis 78097 (van B)) [µg/mL] | other results
CC1(C)S[C@@H]2[C@H](NC(=O)[C@H](N)c3ccccc3)C(=O)N2[C@H]1C(=O)O [Ampicillin, ampicillin] | 2 | 2 | 2 | 2 | 1 | 1 | 0.25 | 1 | 1 | 1 | 1 | 1 | 1 | <0.03 | 0.5 | 0.5 | 0.5 | 0.5 | 0.5 | 0.5 | MIC ([1]; E. faecalis 5659 (vanA), partner antibiotic alone): 1 µg/mL; MIC ([2]; ATCC29212, E. faecalis ATCC 29212, partner antibiotic alone, read-out: MIC (alone) of Partner): 0.5 µg/mL; MIC of partner antibiotic in the presence of PFOB at 32 mg/L ([3]; E.faecalis 78097 (van B)): 0.5 µg/mL; MIC ([3]; E.faecalis 78097 (van B), partner antibiotic alone): 1 µg/mL; Synergy FIC ([4]; E. faecalis ATCC 10541, FIC index of PFOB + labelled partner, <0.5 = synergy): 0.253; MIC of partner antibiotic in the presence of PFOB at 0.5 mg/L ([4]; E. faecalis ATCC 10541): 0.25 µg/mL; MIC of partner antibiotic in the presence of PFOB at 1 mg/L ([4]; E. faecalis ATCC 10541): 0.25 µg/mL; MIC of partner antibiotic in the presence of PFOB at 2 mg/L ([4]; E. faecalis ATCC 10541): 0.25 µg/mL; MIC of partner antibiotic in the presence of PFOB at 16 mg/L ([4]; E. faecalis ATCC 10541): 0.06 µg/mL; MIC of partner antibiotic in the presence of PFOB at 32 mg/L ([4]; E. faecalis ATCC 10541): <0.03 µg/mL; MIC ([4]; ATCC10541, E. faecalis ATCC 10541, partner antibiotic alone, read-out: MIC (alone) of Partner): 1 µg/mL; synergy with PFOB [5]: less marked, but still significant, synergy
CN[C@H](CC(C)C)C(=O)N[C@H]1C(=O)N[C@@H](CC(N)=O)C(=O)N[C@H]2C(=O)N[C@H]3C(=O)N[C@H](C(=O)N[C@H](C(=O)O)c4cc(O)cc(O)c4-c4cc3ccc4O)[C@H](O)c3ccc(c(Cl)c3)Oc3cc2cc(c3O[C@@H]2O[C@H](CO)[C@@H](O)[C@H](O)[C@H]2O[C@H]2C[C@](C)(N)[C@H](O)[C@H](C)O2)Oc2ccc(cc2Cl)[C@H]1O [Vancomycin, vancomycin] | >64 | >64 | >64 | >64 | >64 | >64 | >64 | 4 | 2 | 2 | 2 | 2 | 1 | 1 | 64 | 64 | 64 | 64 | 64 | 32 | MIC [1]: > 64 µg/mL; Synergy FIC ([2]; E. faecalis ATCC 29212, FIC index of PFOB + labelled partner, <0.5 = synergy): 0.31; MIC of PFOB & Partner: Partner concentration ([2]; E. faecalis ATCC 29212, optimum synergistic combination with PFOB, second figure (partner)): 1 µg/mL; MIC ([2]; ATCC29212, read-out: MIC (alone) of Partner): 4 µg/mL; Synergy FIC ([3]; E.faecalis 78097 (van B), FIC index of PFOB + labelled partner, <0.5 = synergy): 0.375; MIC of partner antibiotic in the presence of PFOB at 32 mg/L ([3]; E.faecalis 78097 (van B)): 16 µg/mL; MIC of PFOB & Partner: Partner concentration ([3]; E.faecalis 78097 (van B), optimum synergistic combination with PFOB, second figure (partner)): 32 µg/mL; MIC [3]: > 64 µg/mL; MIC of partner antibiotic in the presence of PFOB at 0.5 mg/L ([4]; E. faecalis ATCC 10541): 2 µg/mL; MIC of partner antibiotic in the presence of PFOB at 1 mg/L ([4]; E. faecalis ATCC 10541): 2 µg/mL; MIC of partner antibiotic in the presence of PFOB at 2 mg/L ([4]; E. faecalis ATCC 10541): 2 µg/mL; MIC of partner antibiotic in the presence of PFOB at 4 mg/L ([4]; E. faecalis ATCC 10541, PFOB 4 mg/L): 2 µg/mL; MIC of partner antibiotic in the presence of PFOB at 8 mg/L ([4]; E. faecalis ATCC 10541, PFOB 8 mg/L): 2 µg/mL; MIC of partner antibiotic in the presence of PFOB at 16 mg/L ([4]; E. faecalis ATCC 10541): 1 µg/mL; MIC of partner antibiotic in the presence of PFOB at 32 mg/L ([4]; E. faecalis ATCC 10541): 1 µg/mL; MIC ([4]; ATCC10541, read-out: MIC (alone) of Partner): 4 µg/mL; synergy with PFOB [5]: less marked, but still significant, synergy
